pIC50: −log10 of the molar value.
Key:
[1] = tested on: asymmetric di-methyl PABP1 in RKO cells; experiment: In Cell Western (ICW) for asymmetric di-methyl PABP1 and DNA content in RKO cells; assay type: cell-based; conditions: Homo sapiens, RKO, In Cell Western
In short: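 RKO cells treated with compound for 48 h at 37 °C, then fixed, methanol-permeabilized and stained for asymmetric di-methyl PABP1 (800 nm) with DRAQ5 DNA stain (700 nm). Signal ratio normalized to DMSO and 20 μM reference-compound controls. IC50 from nine 3-fold dilutions in triplicate.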

[2] = biological target: PRMT5 (Homo sapiens, UniProt O14744); experiment: PRMT5 IC50 (Table 2; no method described); assay type: biochemical; conditions: read-out: PRMT5_ IC50
Sequence of PRMT5 (O14744 whole entry, species assumed): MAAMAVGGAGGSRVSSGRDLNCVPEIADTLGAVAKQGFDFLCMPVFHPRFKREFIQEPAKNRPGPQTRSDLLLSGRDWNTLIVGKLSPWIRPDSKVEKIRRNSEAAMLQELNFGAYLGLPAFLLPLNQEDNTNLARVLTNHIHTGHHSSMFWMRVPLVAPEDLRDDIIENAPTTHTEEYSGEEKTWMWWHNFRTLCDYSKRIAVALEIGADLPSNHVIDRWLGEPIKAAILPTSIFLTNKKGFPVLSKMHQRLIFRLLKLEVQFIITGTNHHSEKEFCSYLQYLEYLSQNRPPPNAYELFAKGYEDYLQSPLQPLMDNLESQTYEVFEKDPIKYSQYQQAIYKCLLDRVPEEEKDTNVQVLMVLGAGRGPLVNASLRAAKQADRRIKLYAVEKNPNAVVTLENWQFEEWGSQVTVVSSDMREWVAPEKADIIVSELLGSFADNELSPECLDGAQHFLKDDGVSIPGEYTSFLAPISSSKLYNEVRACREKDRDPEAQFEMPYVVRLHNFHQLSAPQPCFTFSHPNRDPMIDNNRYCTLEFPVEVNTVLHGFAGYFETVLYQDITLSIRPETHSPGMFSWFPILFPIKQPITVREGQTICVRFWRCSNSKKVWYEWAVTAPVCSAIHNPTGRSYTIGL
Sequence of PRMT5 (Q9BQA1 whole entry partner, species assumed): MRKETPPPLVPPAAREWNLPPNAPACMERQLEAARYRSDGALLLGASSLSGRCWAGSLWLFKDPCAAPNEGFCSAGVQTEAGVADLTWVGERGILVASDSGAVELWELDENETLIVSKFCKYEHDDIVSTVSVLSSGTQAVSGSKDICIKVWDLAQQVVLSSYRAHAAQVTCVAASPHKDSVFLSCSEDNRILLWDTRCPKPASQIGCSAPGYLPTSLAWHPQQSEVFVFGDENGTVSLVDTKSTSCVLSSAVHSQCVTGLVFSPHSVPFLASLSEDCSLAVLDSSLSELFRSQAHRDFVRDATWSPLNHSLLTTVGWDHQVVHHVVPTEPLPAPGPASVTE

Structure (SMILES)	pIC50 [1]	pIC50 [2]
CN(CCN)Cc1cccc(-c2nc(NCc3cn4ccsc4n3)c3cnn(C4CC4)c3n2)c1 [Compound 5]	4.70	–
CNCCN(C)Cc1cccc(-c2nc(NCc3cn4ccsc4n3)c3cnn(C4CC4)c3n2)c1 [Compound 6]	6.41	–
Cc1c(C(=O)NCc2ccccc2)cc(-c2ccc(CN(C)CCN)cc2)c2cn[nH]c12 [Compound 7]	–	4.65
COc1cccc(Cn2cnc3ccc(-c4ccc(CN(C)CCN)cc4)cc32)c1 [Compound 8]	–	4.80
CNCCN(C)Cc1cccc(-c2nc(NCc3ccccn3)c3cnn(C4CC4)c3n2)c1 [Compound 9]	4.70	–
CNCCN(C)Cc1cccc(-c2cc(-c3cnn(C)c3)c3cnn(C(C)C)c3n2)c1 [Compound 49, N1-(3-(1-isopropyl-4-(1-methyl-1H-pyrazol-4-yl)-1H-pyrazolo[3,4-b]pyridin-6-yl)benzyl)-N1,N2-dimethylethane-1,2-diamine]	5.89	–
CNCCN(C)Cc1cccc(-c2cc(N3CCC(OC)CC3)c3cnn(C(C)C)c3n2)c1 [Compound 51]	5.27	–
CCOc1cc(-c2cccc(CN(C)CCNC)c2)nc2c1cnn2C(C)C [Compound 53]	5.46	–
CC(C)n1ncc2c(C(=O)NCc3ccccc3Cl)cc(-c3cccc(CN(C)CCN)c3)nc21 [Compound 54]	4.70	–
CNCCN(C)Cc1cccc(-c2cc(N3CCCC(C#N)C3)c3cnn(C(C)C)c3n2)c1 (stereo not shown) [Compound 55]	5.32	–
CNCCN(C)Cc1cccc(-c2cc(C(=O)N3CCCCC3)c3cnn(C(C)C)c3n2)c1 [Compound 56]	4.77	–
CNCCN(C)Cc1cccc(-c2nc(NCc3cnn(C)c3C)c3cnn(C4CC4)c3n2)c1 [Compound 57]	4.70	–
CNCCN(C)Cc1cccc(-c2cc(NC3COC3)c3cnn(C(C)C)c3n2)c1 [Compound 58]	5.49	–
CC(C)n1cc2c(Cl)cc(-c3cccc(CN(C)CCN)c3)nc2n1 [Compound 59]	4.81	–
CC(C)n1ncc2c(N3CCOCC3)cc(-c3cccc(CN(C)CCN)c3)nc21 [Compound 61, N1-(3-(1-isopropyl-4-morpholino-1H-pyrazolo[3,4-b]pyridin-6-yl)benzyl)-N1-methylethane-1,2-diamine]	5.25	–
CN(CCN)Cc1cccc(-c2nc(NCc3ccncc3)c3cnn(C4CC4)c3n2)c1 [Compound 66]	4.70	–
NCCNCc1ccc(-c2ccc3ncn(CC4CCNCC4)c3c2)cc1 [Compound 70]	–	6.38
COC(=O)Nc1cc(-c2cccc(CN(C)CCN)c2)nc2c1cnn2C(C)C [Compound 71]	4.96	–
CCNc1cc(-c2cccc(CN(C)CCNC)c2)nc2c1cnn2C(C)C [Compound 72]	5.27	–
CNCCN(C)Cc1cccc(-c2ccc3cnn(C(C)C)c3n2)c1 [Compound 73]	4.70	4.30

Structure (SMILES)	pIC50 [1]	pIC50 [2]
CNCCN(C)Cc1cccc(-c2cc(C#N)c3cnn(C(C)C)c3n2)c1 [Compound 74]	4.70	–
CNCCN(C)Cc1cccc(-c2cc(NC3CCOCC3)c3cnn(C(C)C)c3n2)c1 [Compound 76]	5.79	–
CCOC(=O)c1cc(-c2cccc(CN(C)CCNC)c2)nc2c1cnn2C(C)C [Compound 78]	4.89	–
CNCCN(C)Cc1cccc(-c2cc(N3CCC3)c3cnn(C(C)C)c3n2)c1 [Compound 79]	4.70	–
COc1ccccc1Cn1cnc2ccc(-c3ccc(CNCCN)cc3)cc21 [Compound 80]	–	6.79
NCCNCc1ccc(-c2ccc3ncn(CC4CCCNC4)c3c2)cc1 (stereo not shown) [Compound 81]	–	6.49
Cc1ccccc1Cn1cnc2ccc(-c3ccc(CNCCN)cc3)cc21 [Compound 82]	–	6.63
CC(C)n1ncc2c(NC(=O)OCc3ccccc3)cc(-c3cccc(CN(C)CCN)c3)nc21 [Compound 84]	4.88	4.56
CNCCN(C)Cc1cccc(-c2cc(NC(=O)NC(C)C)c3cnn(C(C)C)c3n2)c1 [Compound 85]	5.59	–
CC(C)NC(=O)Nc1cc(-c2cccc(CN(C)CCN)c2)nc2c1cnn2C(C)C [Compound 86]	5.46	–
CNCCN(C)Cc1cccc(-c2cc(C(=O)NC3CCOCC3)c3cnn(C4CC4)c3n2)c1 [Compound 87]	5.66	–
CNCCN(C)Cc1cccc(-c2cc(N3CCC(C#N)CC3)c3cnn(C(C)C)c3n2)c1 [Compound 93]	5.78	–
COc1cccc(CCn2cnc3ccc(-c4ccc(CNCCN)cc4)cc32)c1 [Compound 94]	–	7.05
CNCCN(C)Cc1cccc(-c2cc(N(C)C3CC3)c3cnn(C(C)C)c3n2)c1 [Compound 95]	5.17	3.70
CN(CCN)Cc1cccc(-c2nc(NC3CC3)c3cnn(C4CC4)c3n2)c1 [Compound 96]	4.90	–
Cc1ccc(Cn2cnc3ccc(-c4ccc(CNCCN)cc4)cc32)cc1 [Compound 97]	–	7.18
CNCCN(C)Cc1cccc(-c2cc(C(=O)NCc3ccccn3)c3cnn(C(C)C)c3n2)c1 [Compound 98]	5.80	–
CNCCN(C)Cc1cccc(-c2nc(N3CCOCC3)c3cnn(C(C)C)c3n2)c1 [Compound 99]	5.81	–
CNCCN(C)Cc1cccc(-c2ccc3cnn(C(C)C)c3c2)c1 [Compound 100]	–	4.30
CC(C)n1ncc2c(NC3CCOCC3)cc(-c3cccc(CN(C)CCN)c3)nc21 [Compound 101]	5.20	–

Structure (SMILES)	pIC50 [1]	pIC50 [2]
CNCCN(C)Cc1cccc(-c2cc(OC3CCOC3)c3cnn(C(C)C)c3n2)c1 (stereo not shown) [Compound 102]	4.96	–
CNCCN(C)Cc1cccc(-c2cc(N(C)C)c3cnn(C(C)C)c3n2)c1 [Compound 103]	4.99	–
NCCNCc1ccc(-c2ccc3ncn(Cc4ccc(C(=O)N5CCCC5)cc4)c3c2)cc1 [Compound 104]	–	7.00
CNCCN(C)Cc1cccc(-c2cc(C(=O)NCC3CCOCC3)c3cnn(C(C)C)c3n2)c1 [Compound 105]	5.87	–
Cc1cccc(-n2cnc3ccc(-c4ccc(CNCCN)cc4)cc32)c1 [Compound 106]	–	6.75
CC(C)n1ncc2c(NS(=O)(=O)N(C)C)cc(-c3cccc(CN(C)CCN)c3)nc21 [Compound 107]	4.93	–
CC(C)n1ncc2c(C(=O)NCC3CCOCC3)cc(-c3cccc(CN(C)CCN)c3)nc21 [Compound 108]	5.95	–
CNCCN(C)Cc1cccc(-c2nc(N(C)C3CCOCC3)c3cnn(C4CC4)c3n2)c1 [Compound 109, N1-(3-(1-cyclopropyl-4-(methyl(tetrahydro-2H-pyran-4-yl)amino)-1H-pyrazolo[3,4-d]pyrimidin-6-yl)benzyl)-N1,N2-dimethylethane-1,2-diamine]	4.97	–
COc1cccc(-n2cnc3ccc(-c4ccc(CNCCN)cc4)cc32)c1 [Compound 110]	–	6.56
CCS(=O)(=O)Nc1cc(-c2cccc(CN(C)CCN)c2)nc2c1cnn2C(C)C [Compound 111]	4.92	–
CNCCN(C)Cc1cccc(-c2nc(NC3CC3)c3cnn(C4CC4)c3n2)c1 [Compound 114]	4.70	–
COc1ccccc1-c1nc2ccc(-c3ccc(CNCCN)cc3)cc2[nH]1 [Compound 115]	–	6.46
CC(C)n1ncc2c(NC(=O)N(C)C)cc(-c3cccc(CN(C)CCN)c3)nc21 [Compound 116]	5.58	–
CN(CCN)Cc1cccc(-c2nc(N(C)C3CCOCC3)c3cnn(C4CC4)c3n2)c1 [Compound 119]	5.86	–
CNCCN(C)Cc1cccc(-c2cc(C(=O)NCc3cc(C)nn3C)c3cnn(C(C)C)c3n2)c1 [Compound 120]	5.82	–
CNCCN(C)Cc1cccc(-c2cc(NC)c3cnn(C(C)C)c3n2)c1 [Compound 121]	5.13	–
CNCCN(C)Cc1cccc(-c2cc(NC(=O)N(C)C)c3cnn(C(C)C)c3n2)c1 [Compound 123]	5.32	–
CNCCN(C)Cc1cccc(-c2cc(OC)c3cnn(C(C)C)c3n2)c1 [Compound 124]	4.75	–
